The nature of test [1]: Inhibition of lipid peroxidation in Sprague-Dawley rat heart mitochondria assessed as inhibition of FeSO4-induced oxygen consumption. In kind it is functional.
Test [2] can be described thus: Inhibition of lipid peroxidation in Sprague-Dawley rat heart mitochondria assessed as inhibition of FeSO4-induced malondialdehyde formation. Type of test: functional.
The species named for test [3] is Rattus norvegicus. The test can be described thus: Inhibition of lipid peroxidation in Sprague-Dawley rat heart mitochondria assessed as inhibition of FeSO4-induced oxygen consumption up to 0.3 mM relative to control. Type of test: functional. Further details: scale not given: the % may be the effect or the level left.
Test [4] is filed under the species Rattus norvegicus. In words: Inhibition of lipid peroxidation in Sprague-Dawley rat heart mitochondria assessed as inhibition of FeSO4-induced malondialdehyde formation up to 0.3 mM relative to control. Further details: scale not given: the % may be the effect or the level left. Type of test: functional.
The species entered for test [5] is Rattus norvegicus. The test can be described thus: Antioxidant activity in Sprague-Dawley rat heart mitochondria assessed as inhibition of conjugated diene formation at 1 to 300 uM. Type of test: functional.
The subject of test [6] is Radical scavenging activity. In words: Antioxidant activity assessed as DPPH radical scavenging activity after 90 mins. Type of test: functional. In general terms: DPPH is a stable violet radical that fades when it is reduced.
The test system of another test is PBMC. The test can be described thus: Inhibition of thymidine uptake in phytohemagglutininin-stimulated human PBMC. In kind it is functional, cell-based.

The structures appear in SMILES notation. Active and inactive are the calls of the source. No cut-off for these calls is given here.

The IC50 is the concentration that inhibits the measured activity by half.

In the case of `O=C(O[C@@H]1Cc2c(O)cc(O)cc2O[C@H]1c1cc(O)c(O)c(O)c1)c1cc(O)c(O)c(O)c1` [GALLOCATECHIN GALLATE], the IC50 is 14 µM in test [1] and 8.6 µM in test [2].
As for `O=C(O[C@@H]1Cc2c(O)cc(O)cc2O[C@@H]1c1ccc(O)c(O)c1)c1cc(O)c(O)c(O)c1` [EPICATECHIN GALLATE], the IC50 in test [1] came out at 8.4 µM; in test [2], 5.4 µM.
Regarding `Nc1cccc2c1C(=O)c1ccccc1C2=O`, the Activity in the test filed under Rattus norvegicus [3] and in the test filed under Rattus norvegicus [4] was under 50% in each case.
On to `Cc1cc(O)c2c(c1)C(=O)c1cc(O)cc(O[C@@H]3O[C@H](CO)[C@@H](O)[C@H](O)[C@H]3O)c1C2=O`, for which the Activity in the test listed under Rattus norvegicus [3] and in the test listed under Rattus norvegicus [4] was under 50% in each case.
On to `Nc1ccc2c(c1)C(=O)c1ccccc1C2=O`, for which the Activity in the test filed under Rattus norvegicus [3] and in the test listed under Rattus norvegicus [4] was under 50% throughout.
Turning to `Cc1cc(O)c2c(c1)C(=O)c1cc(O)cc(O)c1C2=O` [EMODIN], the result (in the test filed under Rattus norvegicus [5]; in test [6]) was inactive. Moreover, the values for the IC50 in test [1] and in test [2] were 12.5 µM and 16.8 µM, respectively.
As to `O=C1OC[C@H]2OC(O)[C@@H]3OC(=O)c4cc(O)c(O)c(O)c4-c4c(cc(O)c(O)c4O)C(=O)O[C@H]3[C@@H]2OC(=O)c2cc(O)c(O)c(O)c2-c2c1cc(O)c(O)c2O` (stereo partly drawn) [PEDUNCULAGIN], the IC50 worked out at 7.8 µM in test [1] and 12 µM in test [2].
Consider `O=C1c2ccc(O)cc2C(=O)c2ccc(O)cc21`, for which the Activity in the test filed under Rattus norvegicus [3] and in the test listed under Rattus norvegicus [4] was under 50% throughout. Further, in the test on PBMC, the outcome was Active.
Take `O=C1c2ccccc2C(=O)c2c1ccc(O)c2O` [ATHRAQUINONES A]: the outcome in test [6] was Active. In addition, the IC50 was 63.9 µM in test [1] and 49.5 µM in test [2].
`CCc1ccc2c(c1)C(=O)c1ccccc1C2=O`: the Activity in the test filed under Rattus norvegicus [3] and in the test filed under Rattus norvegicus [4] was under 50% in each case.
For the compound `O=C(O)c1ccc2c(c1)C(=O)c1ccccc1C2=O`, the Activity in the test listed under Rattus norvegicus [3] and in the test filed under Rattus norvegicus [4] was under 50% each time.
Consider `O=C1c2cccc(O)c2C(=O)c2cccc(O)c21`, for which the Activity in the test filed under Rattus norvegicus [3] and in the test filed under Rattus norvegicus [4] was under 50% in each case.
On to `Cc1cc(O)c2c(c1)C(=O)c1cccc(O)c1C2=O`, for which the Activity in the test filed under Rattus norvegicus [3] and in the test filed under Rattus norvegicus [4] was under 50% each time.
For the compound `O=C(O[C@@H]1Cc2c(O)cc(O)cc2O[C@@H]1c1cc(O)c(O)c(O)c1)c1cc(O)c(O)c(O)c1` [EPIGALOCATECHIN GALLATE], the values for the IC50 in test [1] and in test [2] were 12.2 µM and 9.4 µM, respectively.
Turning to `O=C1c2ccccc2C(=O)c2ccccc21`, the Activity in the test filed under Rattus norvegicus [3] and in the test filed under Rattus norvegicus [4] was under 50% in each case.
Consider `COc1cc(O)c2c(c1)C(=O)c1cc(C)cc(O)c1C2=O`, for which the Activity in the test listed under Rattus norvegicus [3] and in the test listed under Rattus norvegicus [4] was under 50% each time.
In the case of `Oc1cc(O)c2c(c1)O[C@H](c1ccc(O)c(O)c1)[C@H](O)[C@H]2c1c(O)cc(O)c2c1O[C@H](c1ccc(O)c(O)c1)[C@H](O)C2` [PROCYANIDIN B2], the IC50 amounted to 11 µM in test [1] and 9 µM in test [2].
In the case of `COc1cc(O[C@@H]2O[C@H](CO)[C@@H](O)[C@H](O)[C@H]2O)c2c(c1)C(=O)c1cc(C)cc(O)c1C2=O`, the Activity in the test listed under Rattus norvegicus [3] and in the test listed under Rattus norvegicus [4] was under 50% each time.
As to `Cc1c(C)c2c(c(C)c1O)CC[C@@](C)(CCC[C@H](C)CCC[C@H](C)CCCC(C)C)O2` [ALPHA-TOCOPHEROL], in test [6], the outcome was Active. Moreover, the figures for the IC50 in test [1] and in test [2] were 102 µM and 94.7 µM, respectively.

The values above are taken from ChEMBL document CHEMBL1159287, “Effect of anthraquinone derivatives on lipid peroxidation in rat heart mitochondria: structure-activity relationship” (J Nat Prod, 1995).
